# Results as given in US8431593B2, “Heteroaryl amide derivatives” (H. Lundbeck A/S, priority 2006, dated 2013).
# pIC50: −log10 of the molar value.
# Target: T1, P2X7 receptor (Homo sapiens, UniProt Q99572)
# T1 construct: host or cells: SH-SY5Y
# T1 sequence (Q99572 1-595): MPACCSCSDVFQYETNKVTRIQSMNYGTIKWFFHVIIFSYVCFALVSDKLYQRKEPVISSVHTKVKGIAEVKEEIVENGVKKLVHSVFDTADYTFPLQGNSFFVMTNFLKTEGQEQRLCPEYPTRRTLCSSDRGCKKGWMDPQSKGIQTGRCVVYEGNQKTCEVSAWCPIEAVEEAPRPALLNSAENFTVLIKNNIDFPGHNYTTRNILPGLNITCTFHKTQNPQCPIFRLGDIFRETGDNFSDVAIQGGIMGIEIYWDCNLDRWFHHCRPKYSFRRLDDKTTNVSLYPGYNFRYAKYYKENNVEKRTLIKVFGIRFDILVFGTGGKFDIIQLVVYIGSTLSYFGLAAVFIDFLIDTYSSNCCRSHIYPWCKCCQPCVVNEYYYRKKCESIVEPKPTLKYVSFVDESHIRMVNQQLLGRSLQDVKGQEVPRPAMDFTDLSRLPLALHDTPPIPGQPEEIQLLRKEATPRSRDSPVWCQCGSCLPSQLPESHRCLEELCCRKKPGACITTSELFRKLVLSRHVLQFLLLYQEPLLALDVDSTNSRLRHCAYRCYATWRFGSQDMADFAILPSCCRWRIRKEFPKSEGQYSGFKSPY
# Experiment: P2X7 calcium mobilization assay, high throughput, antagonist activity (Example 4A)
# Assay type: cell-based
# Conditions: not given
# In short: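 100,000 cells/well, plated day -1. Dye 1 h → rinse → compound 1 h, RT → FLIPR^TETRA Ca2+ mobilization. Max RFU minus mean negative control (no agonist); mean agonist-well max as positive control.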
row,Structure (SMILES),pIC50
1,"O=C(NCC12CC3CC(CC(C3)C1)C2)c1cccc2nc(CN3CCCC(C(=O)O)C3)cn12 (centres unmarked) [Compound 191, 1-({5-[(adamantan-1-ylmethyl)carbamoyl]imi-dazo[1,2-a]pyridin-2-yl}methyl)piperidine-3-carboxylic acid]",> 5.70
2,"CC(C)(CO)NC(=O)c1cn2c(C(=O)NC[C@@H]3CC[C@H]4C[C@@H]3C4(C)C)cccc2n1 [Compound 520, 5-N-{[(1S,2R,5S)-6,6-dimethylbicyclo[3.1.1]hept-2-yl]methyl}-2-N-(2-hydroxy-1,1-dimethylethyl)imidazo[1,2-a]pyridine-2,5-dicarboxamide]",> 5.70

# Same assay, conditions: 50% decrease in the fluorescence response of cells exposed to 80 μM 2′(3′)-O-(4-benzoyl-benzoyl)adenosine 5′-triphosphate; Example 4A; read-out: IC50
row,pIC50,Structure (SMILES)
1,> 5.70,"CCOC(=O)CN(CC)C(=O)c1cn2c(C(=O)NC[C@@H]3CC[C@H]4C[C@@H]3C4(C)C)cccc2n1 [Compound 479, ethyl N-{[5-({[(1S,2R,5S)-6,6-dimethylbicyclo[3.1.1]hept-2-yl]methyl}carbamoyl)imidazo[1,2-a]pyridin-2-yl]carbonyl}-N-ethylglycinate]"
2,> 5.70,"CC(C)NCc1cn2c(C(=O)NCC34CC5CC(CC(C5)C3)C4)cccc2n1 [Compound 597, N-(adamantan-1-ylmethyl)-2-[(isopropylamino)methyl]imidazo [1,2-a]pyridine-5-carboxamide]"
3,> 5.70,"CNC1CCN(C(=O)c2cn3c(C(=O)NCC45CC6CC(CC(C6)C4)C5)cccc3n2)C1 (centres unmarked) [Compound 611, N-(adamantan-1-ylmethyl)-2-{[3-(methylamino)pyrrolidin-1-yl]carbonyl}imidazo[1,2-a]pyridine-5-carboxamide]"
4,> 5.70,"CC1(C)[C@H]2CC[C@@H](CNC(=O)c3cccc4nc(C(=O)NC5(CO)CCCC5)cn34)[C@@H]1C2 [Compound 518, 5-N-{[(1S,2R,5S)-6,6-dimethylbicyclo[3.1.1]hept-2-yl]methyl}-2-N-[1-(hydroxymethyl)cyclopentyl] imidazo[1,2-a]pyridine-2,5-dicarboxamide]"

# Same assay, conditions: 50% decrease in the fluorescence response of cells exposed to 80 μM of 2′(3′)-O-(4-benzoyl-benzoyl)adenosine 5′-triphosphate; Example 4A; read-out: IC50
row,pIC50,Structure (SMILES)
1,> 5.70,"COCCN(C(=O)c1cn2c(C(=O)NCC34CC5CC(CC(C5)C3)C4)cccc2n1)C1CCNCC1(C)C (centres unmarked) [Compound 623, 5-N-(adamantan-1-ylmethyl)-2-N-(3,3-dimethylpiperidin-4-yl)-2-N-(2-methoxyethyl)imidazo [1,2-a]pyridine-2,5-dicarboxamide]"
2,> 5.70,"CC(C)CC(CNC(=O)c1cccc2nc(CN3CCOCC3)cn12)c1ccccc1 (centres unmarked) [Compound 688, N-(4-methyl-2-phenylpentyl)-2-(morpholin-4-ylmethyl)imidazo[1,2-a]pyridine-5-carboxamide]"
3,> 5.70,"CC(C)(C)OC(=O)N[C@@H]1CCN(Cc2cn3c(C(=O)NCC(CC4CC4)c4ccccc4)cccc3n2)C1 (stereo in doubt) [Compound 776, tert-butyl [1-({5-[(3-cyclopropyl-2-phenylpropyl)carbamoyl]imidazo[1,2-a]pyridin-2-yl}methyl)pyrrolidin-3-yl]carbamate]"
4,> 5.70,"NCC1CCCN1C(=O)c1cn2c(C(=O)NCC34CC5CC(CC(C5)C3)C4)cccc2n1 (centres unmarked) [Compound 622, N-(adamantan-1-ylmethyl)-2-{[2-(aminomethyl)pyrrolidin-1-yl]carbonyl} imidazo[1,2-a]pyridine-5-carboxamide]"
5,> 5.70,"CC(C)(C)OC(=O)N[C@@H]1CCN(Cc2cn3c(C(=O)NCC(CC4CCCCC4)c4ccccc4)cccc3n2)C1 (some centres unmarked) [Compound 785, tert-butyl [1-({5-[(3-cyclohexyl-2-phenylpropyl)carbamoyl]imidazo[1,2-a]pyridin-2-yl}methyl)pyrrolidin-3-yl]carbamate]"
6,> 5.70,"CN(C(=O)Cc1cn2c(C(=O)NCC34CC5CC(CC(C5)C3)C4)cccc2n1)C1CCOCC1 [Compound 767, N-(adamantan-1-ylmethyl)-2-{2-[methyl(tetrahydro-2H-pyran-4-yl)amino]-2-oxoethyl} imidazo[1,2-a] pyridine-5-carboxamide]"
7,> 5.70,"O=C(NCC12CC3CC(CC(C3)C1)C2)c1cccc2nc(Cn3cnnn3)cn12 [Compound 727, N-(adamantan-1-ylmethyl)-2-(1H-tetrazol-1-ylmethyl) imidazo[1,2-a]pyridine-5-carboxamide]"
8,> 5.70,"CCOC(=O)C(Cc1cccnc1)c1cn2c(C(=O)NCC34CC5CC(CC(C5)C3)C4)cccc2n1 (centres unmarked) [Compound 689, ethyl 2-{5-[(adamantan-1-ylmethyl)carbamoyl]imidazo[1,2-a]pyridin-2-yl}-3-pyridin-3-ylpropanoate]"

# Same assay, conditions: 50% decrease in the fluorescence response of cells exposed to 80 μM of 2′(3′)-O-(4-benzoyl-benzoyl)adenosine 5′-triphosphate; determined as in Example 4A; read-out: IC50
row,pIC50,Structure (SMILES)
1,> 5.70,"O=C(Cc1cn2c(C(=O)NCC34CC5CC(CC(C5)C3)C4)cccc2n1)N[C@H]1CCNC1 [Compound 911, N-(adamantan-1-ylmethyl)-2-{2-oxo-2-[(3S)-pyrrolidin-3-ylamino]ethyl} imidazo [1,2-a]pyridine-5-carboxamide]"
2,> 5.70,"CC(C)CC(CNC(=O)c1cccc2nc(CNc3cc[nH]n3)cn12)c1ccc(Cl)cc1 (centres unmarked) [Compound 835, N-[2-(4-chlorophenyl)-4-methylpentyl]-2-[(1H-pyrazol-3-ylamino)methyl] imidazo [1,2-a]pyridine-5-carboxamide]"
3,> 5.70,"O=C(NCC12CC3CC(CC(C3)C1)C2)c1cccc2nc(C3(C(=O)O)CCOCC3)cn12 [Compound 945, 4-{5-[(adamantan-1-ylmethyl)carbamoyl]imidazo[1,2-a]pyridin-2-yl}tetrahydro-2H-pyran-4-carboxylic acid]"
4,> 5.70,"O=C(NCC1(c2ccc(Cl)cc2)CCCCC1)c1cccc2nc(CC(Cc3ccccc3)C(=O)O)cn12 (centres unmarked) [Compound 1013, 2-benzyl-3-[5-({[1-(4-chlorophenyl)cyclohexyl]methyl}carbamoyl)imidazo[1,2-a]pyridin-2-yl] propanoic acid]"

# Same assay, conditions: SH-SY5Y cells; 50% decrease in fluorescence response to 80 μM BzATP; read-out: IC50
row,pIC50,Structure (SMILES)
1,> 5.70,"CCC(C)NC(=O)Cc1cn2c(C(=O)NCC34CC5CC(CC(C5)C3)C4)cccc2n1 (centres unmarked) [Compound 152, N-(adamantan-1-ylmethyl)-2-[2-(sec-butylamino)-2-oxoethyl]imidazo[1,2-a]pyridine-5-carboxamide]"
2,> 5.70,"O=C(NCC12CC3CC(CC(C3)C1)C2)c1cccc2nc(C(=O)N3CCC(N4CCOCC4)CC3)cn12 [Compound 101, N-(adamantan-1-ylmethyl)-2-[(4-morpholin-4-ylpiperidin-1-yl)carbonyl]imidazo[1,2-a]pyridine-5-carboxamide]"
3,> 5.70,"CC(C)CN(C)C(=O)Cc1cn2c(C(=O)NCC34CC5CC(CC(C5)C3)C4)cccc2n1 [Compound 173, N-(adamantan-1-ylmethyl)-2-{2-[isobutyl(methyl)amino]-2-oxoethyl}imidazo[1,2-a]pyridine-5-carboxamide]"
4,> 5.70,"COC1CCCN(C(=O)Cc2cn3c(C(=O)NCC45CC6CC(CC(C6)C4)C5)cccc3n2)C1 (centres unmarked) [Compound 47, N-(adamantan-1-ylmethyl)-2-[2-(3-methoxypiperidin-1-yl)-2-oxoethyl]imidazo[1,2-a]pyridine-5-carboxamide]"
5,> 5.70,"NC1CCN(CCc2cn3c(C(=O)NCC45CC6CC(CC(C6)C4)C5)cccc3n2)CC1 [Compound 117, 2-[2-(4-amino-piperidin-1-yl)-ethyl]-imidazo[1,2-a]pyridine-5-carboxylic acid (adamantan-1-ylmethyl)-amide]"

# Same assay, conditions: fluorescence response of cells exposed to 80 μM 2′(3′)-O-(4-benzoyl-benzoyl)adenosine 5′-triphosphate; Example 4A; read-out: IC50
row,pIC50,Structure (SMILES)
1,> 5.70,"O=C(CC12CC3CC(CC(C3)C1)C2)Nc1cccc2nc(C(=O)N(CCO)C3CCCCC3)cn12 [Compound 407, 5-[(adamantan-1-ylacetyl)amino]-N-cyclohexyl-N-(2-hydroxyethyl)imidazo [1,2-a]pyridine-2-carboxamide]"
2,> 5.70,"O=C(NCC12CC3CC(CC(C3)C1)C2)c1cccc2nc(CN3CCCC(F)(F)C3)cn12 [Compound 288, N-(adamantan-1-ylmethyl)-2-[(3,3-difluoropiperidin-1-yl)methyl]imidazo[1,2-a]pyridine-5-carboxamide]"
3,> 5.70,"O=C(O)CSCc1cn2c(C(=O)NCC34CC5CC(CC(C5)C3)C4)cccc2n1 [Compound 287, [({5-[(adamantan-1-ylmethyl)carbamoyl]imidazo[1,2-a]pyridin-2-yl}methyl)thio]acetic acid]"
4,> 5.70,"CCN(C)C(=O)c1cn2c(NC(=O)CC34CC5CC(CC(C5)C3)C4)cccc2n1 [Compound 369, 5-[(adamantan-1-ylacetyl)amino]-N-ethyl-N-methylimidazo[1,2-a]pyridine-2-carboxamide]"
5,> 5.70,"CCOC(=O)N1CCN(C(=O)c2cn3c(NC(=O)CC45CC6CC(CC(C6)C4)C5)cccc3n2)CC1 [Compound 356, ethyl 4-({5-[(adamantan-1-ylacetyl)amino]imidazo [1,2-a]pyridin-2-yl}carbonyl) piperazine-1-carboxylate]"
6,> 5.70,"O=C(NCC12CC3CC(CC(C3)C1)C2)c1cccc2nc(CSc3nnc[nH]3)cn12 [Compound 293, N-(adamantan-1-ylmethyl)-2-[(4H-1,2,4-triazol-3-ylthio)methyl]imidazo [1,2-a]pyridine-5-carboxamide]"
